One data set deals with CAPAN1. The data set can be described thus: Activity in Capan1 cells (ME1 responder line). The class given is cell-based. Conditions: Homo sapiens. Here is the method: (§1) Compound 1-4 were tested (Table 1) for inhibition of ME1. […] Capan1 is an ME1 responder line. H23 is an ME1 non-responder line.
(§2) Compound 5-7 were tested (Table 2) for inhibition of ME1. […] Capan1 is an ME1 responder line. H23 is an ME1 non-responder line.

A further data set can be described thus: Permeability pH 6.5. In kind it is in vitro ADME. The settings on record: PAMPA. (PAMPA measures passive passage across an artificial lipid membrane.)
A further data set has as its system H23. As to the kind of experiment: Activity in H23 cells (ME1 non-responder line). The class given is cell-based. The settings on record: Homo sapiens. Here is the method:
as §1, §2

The mark [1] stands for this setting: CAPAN-1, Table 1, read-out: CAPAN1 IC50/EC50.
[2] abbreviates: NCI-H23, Table 1, read-out: H23 IC50/EC50.
Where [3] appears, read: NCI-H23, Table 2, read-out: H23 IC50/EC50.
The mark [4] stands for this setting: CAPAN-1, Table 2, read-out: CAPAN1 IC50/EC50.

Each structure is given as a SMILES string. Read-outs that look alike come from different tables or passages of the source.

For orientation: Papp means the rate of passage across a membrane or cell layer, normalised by area and donor concentration. A high value points to ready permeation.

Consider `Cc1nn(-c2ccc(Cl)cc2)c2ncc(C(=O)NC3CCN(C)CC3)cc12` [Compound 4], for which, in the data set with CAPAN1 (setting [1]), the EC50 is 1.8 µM. This molecule returned a Papp in “Permeability pH 6.5” (Table 1) above 30 ×10⁻⁶ cm/s.

On to `CC1CCN(c2nc3c(c(N4CCc5n[nH]cc5C4)n2)CS(=O)(=O)C3)CC1` [Compound 3], for which the EC50 in the data set with H23 (setting [2]) stood at 4.8 µM; with CAPAN1 (setting [1]) it was 26.6 µM. Also, in the data set “Permeability pH 6.5” (Table 1), the Papp was above 30 ×10⁻⁶ cm/s.

For `CC1CCN(c2ccc3nnc(-c4cccc(CN(C)C)c4)n3n2)CC1` [Compound 1], the results for the EC50 with H23 (setting [2]) and in the data set on CAPAN1 (setting [1]) were 8.1 µM and 16.1 µM, respectively. In “Permeability pH 6.5” (Table 1), this molecule displayed a Papp of 26.5 ×10⁻⁶ cm/s.

For the molecule `Cc1cc(=O)c(O)cn1CCN1CCCc2ccccc21` [Compound 5], the EC50 is 8.6 µM in the data set with H23 (setting [3]) and 2.4 µM in the data set with CAPAN1 (setting [4]). Moreover, the Papp in “Permeability pH 6.5” (Table 2) came out at 15.1 ×10⁻⁶ cm/s.

Regarding `Cc1cc(=O)c(O)c(CN2CC=C(c3ccc(F)cc3)CC2)n1C` [Compound 7], the EC50 was found to be 5.7 µM with H23 (setting [3]) and 26.6 µM with CAPAN1 (setting [4]).

Take `Cc1cc(=O)c(O)cn1CCCc1ccc(Cl)cc1` [Compound 6]: the results for the EC50 in the data set on H23 (setting [3]) and in the data set on CAPAN1 (setting [4]) were 1.7 µM and 0.78 µM, respectively. In the data set “Permeability pH 6.5” (Table 2), this molecule gave a Papp of 18.1 ×10⁻⁶ cm/s.

Turning to `CCN1CCC(C(=O)Nc2cccc(-c3nnc4ccc(N5CCC(C)CC5)nn34)c2)CC1` [Compound 2], the EC50 amounted to 8.6 µM in the data set on H23 (setting [2]) and 3.1 µM in the data set on CAPAN1 (setting [1]). In “Permeability pH 6.5” (Table 1), this molecule came in with a Papp below 0.3 ×10⁻⁶ cm/s.

These data come from patent US20250134888A1, “INHIBITORS OF MALIC ENZYME 1” (Cornell University, priority 2022, published 2025).
